Patent publication US20230114107A1, “COMBINATION ANTI-CANCER THERAPIES WITH INDUCERS OF IRON-DEPENDENT CELLULAR DISASSEMBLY” (Flagship Pioneering Innovations V, Inc., priority 2019, published 2023)

Assays:
[1] = test system: NFKB reporter in THP1-Dual cells; experiment: NFKB reporter activity in THP1-Dual monocytes co-cultured with treated HT1080 cells; type: cell-based, human
Description: HT1080 fibrosarcoma cells were treated with either control (DMSO) or various doses of Erastin, piperazine erastin (PE), or imidazole ketoerastin (IKE) for 24 hours prior to co-culture with THP1-Dual cells for an additional 24 hours. Erastin was purchased from Selleckchem (Houston, Tex.) and dissolved in DMSO. Subsequently, the THP1 supernatants were assessed for nuclear factor kappa-light-chain-enhancer of activated B cells (NFKB) or interferon regulatory factor (IRF) reporter activity.
HT1080 cells were acquired from ATCC and THP1-Dual cells were acquired from InvivoGen (San Diego, Calif.). THP1-Dual cells are human monocyte cells that induce reporter proteins upon activation of either NFKB or IRF pathways. Both cell types were cultured in 96-well plates for the duration of the assay. HT1080 cells were cultured in DMEM with 10% FBS, and THP1-Dual cells were cultured in RPMI with 10% FBS. 7,500 HT1080 cells were plated 24 hours prior to dosing with Erastin, PE, or IKE, with a final DMSO concentration of 0.5%. 24 hours post-treatment, THP1-Dual cells (25,000 cells/well) were added to the HT1080 cells. 24 hours later, 30 μl of supernatant was mixed with either 200 μl QuantiBlue (InvivoGen, San Diego, Calif.) (for NFKB reporter activity) or 50 μl QuantiLuc (for IRF reporter activity) and absorbance or luminescence was recorded on a Molecular Devices plate reader.
HT1080 fibrosarcoma cells were treated with various doses of Erastin (e.g. […], 0.16, 0.31, 0.63, 1.25, 2.5, 5, 10 or 20 μM) alone or in combination with a ferroptosis inhibitor (1 μM Ferrostatin-1, 1 μM Liproxstatin-1, 100 μM Trolox, 25 μM β-Mercaptoethanol or 100 μM Deferoxamine) for 24 hours prior to co-culture with THP1-Dual cells for an additional 24 hours. Ferrostatin-1 and Liproxstatin-1 were purchased from Selleckchem (Houston, Tex.) and dissolved in DMSO. Trolox was purchased from Cayman Chemical Company Inc and resuspended in DMSO. […] Subsequently, the THP1 supernatant was assessed for NFKB activity. […]
HT1080 fibrosarcoma cells were treated with various doses of Erastin (ferroptosis inducer), docetaxel (apoptosis inducer) or H2O2 (necrosis inducer) for 24 hours prior to co-culture with THP1-Dual cells for an additional 24 hours. […] Subsequently, the THP1 supernatants were assessed for nuclear factor kappa-light-chain-enhancer of activated B cells (NFKB).
HT1080 cells were acquired from ATCC and THP1-Dual cells were acquired from InvivoGen (San Diego, Calif.). […] 24 hours later, 30 μl of supernatant was mixed with either 200 μl QuantiBlue (InvivoGen, San Diego, Calif.) (for NFKB reporter activity) or 50 μl QuantiLuc (for IRF reporter activity) and absorbance or luminescence was recorded on a Molecular Devices plate reader.

[2] = test system: HT1080 fibrosarcoma cells; experiment: Viability of HT1080 fibrosarcoma cells after 24 h treatment; type: cell-based; details: various doses
[3] = test system: NFkB reporter in THP1 monocytes; experiment: Screen for innate immune activation: NFkB reporter in THP1 monocytes added to drug-treated HT-1080 cells; type: cell-based, human; details: final compound concentration of 10 PM; reporter read 48h after THP-1 addition; FIG. 17
Description: Over 100 FDA-approved anticancer drugs and 6 inducers of ferroptosis were evaluated for their ability to induce innate immune activation, as measured by induction of an NFkB reporter in THP1 monocytes in vitro. The source of the approved anticancer drug compounds was plate Approved Oncology Drug (AOD) IX, available from the National Cancer Institute, Division of Cancer Treatment and Diagnosis (dtp.cancer.gov/organization/dscb/obtaining/available_plates.htm). Briefly, 20,000-30,000 HT-1080 cells were plated per well in 96 well plates, and 10 μl each of compounds from the AOD IX plates were added to each well, for a final compound concentration of 10 PM. The six inducers of ferroptosis listed above were also included in the experiment, as a comparison. After addition of the drug, cells were incubated overnight, and 50,000 THP-1 reporter cells were added to each well on the following day. Reporter induction was measured by colorimetry 48h after reporter cell addition.

[4] = test system: A20 B-cell leukemia cells; experiment: Viability of A20 B-cell leukemia / lymphoma cells after treatment; type: cell-based; details: for viability of A20 lymphoma cells, dose dependence: GPX4 inhibitor 0.002-10 μM, 24 hours, FIG. 10A, 11A, 12A
[5] = test system: NFKB reporter in THP1-Dual cells; experiment: NFKB reporter activity in THP1-Dual monocytes co-cultured with treated A20 cells; type: cell-based, human; details: for NFKB activity in THP1 cells, dose dependence: A20 lymphoma cells treated with GPX4 inhibitor, FIG. 10B, 11B, 12B
Description: A20 B-cell leukemia cells were treated with either control (DMSO) or various doses of RSL3, for 24 hours prior to co-culture with THP1-Dual cells for an additional 24 hours. RSL3 was purchased from Selleckchem (Houston, Tex.) and dissolved in DMSO. Subsequently, the THP1 supernatants were assessed for NFKB or IRF reporter activity.
A20 cells were acquired from ATCC and THP1-Dual cells acquired from InvivoGen (San Diego, Calif.). Both cell types were cultured in 96-well plates for the duration of the assay. 50,000 A20 cells were plated 24 hours prior to dosing with RSL3, with a final DMSO concentration of 0.5%. 24 hours post-treatment, THP1-Dual cells (25,000 cells/well) were added to the A20 cells. 24 hours later, 30 μl of supernatant was mixed with either 200 μl QuantiBlue (InvivoGen, San Diego, Calif.) or 50 μl QuantiLuc and absorbance or luminescence was recorded on a Molecular Devices plate reader.
A20 lymphoma cells were treated with various doses (e.g. 0.002, 0.005, 0.014, 0.041, 0.123, 0.370, 1.111, 3.333 and 10 μM) of a GPX4 inhibitor (RSL3, ML162 or ML210) in the presence or absence of 1 μM Ferrostatin-1 for 24 hours. ML162 was purchased from Cayman Chemical Company Inc and resuspended in DMSO. ML210 was purchased from Sigma-Aldrich and resuspended in DMSO. A20 lymphoma cells were also treated with DMSO as a negative control. After treatment with DMSO or a GPX4 inhibitor for 24 hours, the A20 lymphoma cells were co-cultured with THP1-Dual cells for an additional 24 hours. Subsequently, the THP1 supernatant was assessed for NFKB reporter activity. A20 cells were acquired from ATCC and THP1-Dual cells were acquired from InvivoGen (San Diego, Calif.). Both cell types were cultured in 96-well plates for the duration of the assay.

[6] = test system: NFKB reporter in THP1-Dual cells; experiment: NFKB reporter activity in THP1-Dual monocytes co-cultured with treated Caki-1 cells; type: cell-based, human
Description: Caki-1 renal cell carcinoma cells were treated with either control (DMSO) or various doses of Erastin, for 24 hours prior to co-culture with THP1-Dual cells for an additional 24 hours. Erastin was purchased from Selleckchem (Houston, Tex.) and dissolved in DMSO. Subsequently, the THP1 supernatants were assessed for NFKB or IRF reporter activity. Caki-1 cells were acquired from ATCC and THP1-Dual cells acquired from InvivoGen (San Diego, Calif.). Both cell types were cultured in 96-well plates for the duration of the assay. 7,500 Caki-1 cells were plated 24 hours prior to dosing with Erastin, with a final DMSO concentration of 0.5%. 24 hours post-treatment, THP1-Dual cells (25,000 cells/well) were added to the Caki-1 cells. 24 hours later, 30 μl of supernatant was mixed with either 200 μl QuantiBlue (InvivoGen) or 50 μl QuantiLuc and absorbance or luminescence was recorded on a Molecular Devices plate reader. Caki-1 renal cell carcinoma cells were treated with either control (DMSO) or various doses of RSL3, for 24 hours prior to co-culture with THP1-Dual cells for an additional 24 hours. RSL3 was purchased from Selleckchem and dissolved in DMSO. Subsequently, the THP1 supernatants were assessed for NFKB or IRF reporter activity. Caki-1 cells were acquired from ATCC and THP1-Dual cells acquired from InvivoGen (San Diego, Calif.). Both cell types were cultured in 96-well plates for the duration of the assay. 7,500 Caki-1 cells were plated 24 hours prior to dosing with RSL3, with a final DMSO concentration of 0.5%. 24 hours post-treatment, THP1-Dual cells (25,000 cells/well) were added to the Caki-1 cells. 24 hours later, 30 μl of supernatant was mixed with either 200 μl QuantiBlue (InvivoGen, San Diego, Calif.) or 50 μl QuantiLuc and absorbance or luminescence was recorded on a Molecular Devices plate reader. […] Subsequently, the THP1 supernatant was assessed for NFKB reporter activity. Caki-1 cells were acquired from ATCC and THP1-Dual cells acquired from InvivoGen (San Diego, Calif.). Both cell types were cultured in 96-well plates for the duration of the assay.

[7] = test system: Caki-1 renal cell carcinoma cells; experiment: Viability of Caki-1 renal cell carcinoma cells after treatment; type: cell-based
[8] = HT1080 cells treated 24 hours, co-culture 24 hours, vs DMSO, FIG. 1B, 1D
[9] = HT1080 cells treated with ferroptosis, apoptosis or necrosis inducer, FIG. 15B
[10] = ferroptosis, apoptosis, necrosis inducers compared, FIG. 15A

CC(C)Oc1ccc(C(=O)Cn2ccnc2)cc1-n1c(CN2CCN(C(=O)COc3ccc(Cl)cc3)CC2)nc2ccccc2c1=O [IKE, imidazole ketoerastin]
NFKB signaling in THP1 monocytes [1, 8]: elicited NFKB signaling in THP1 monocytes
viability of HT1080 cells ([2]; FIG. 1A, 1C): negatively affected the viability
increase in NFkB activity relative to the baseline [3]: 2.4 fold

Cc1onc(C(=O)N2CCN(C(c3ccc(Cl)cc3)c3ccc(Cl)cc3)CC2)c1[N+](=O)[O-] [ML210]
viability of A20 lymphoma cells, dose dependence [4]: decreased viability of the cells in a dose dependent manner
NFKB activity in THP1 cells, dose dependence [5]: increased NFKB activity in THP1 cells in a dose dependent manner

CC(C)Oc1ccc(CN2CCNCC2)cc1-n1c(CN2CCN(C(=O)COc3ccc(Cl)cc3)CC2)nc2ccccc2c1=O [PE, piperazine erastin]
NFKB signaling in THP1 monocytes [1, 8]: elicited NFKB signaling in THP1 monocytes
viability of HT1080 cells ([2]; FIG. 1A, 1C): negatively affected the viability

CC(=O)O[C@@]12CO[C@@H]1C[C@H](O)[C@@]1(C)C(=O)[C@H](O)C3=C(C)[C@@H](OC(=O)[C@H](O)[C@@H](NC(=O)OC(C)(C)C)c4ccccc4)C[C@@](O)([C@@H](OC(=O)c4ccccc4)[C@H]21)C3(C)C [docetaxel, Docetaxel]
NFKB signaling in THP1 monocytes [1, 9]: did not have this same effect
viability of HT1080 cells [2, 10]: negatively affected the viability

COc1ccc(N(C(=O)CCl)C(C(=O)NCCc2ccccc2)c2cccs2)cc1Cl (centres unmarked) [ML162]
NFKB activity in THP1 cells, dose dependence ([6]; Caki-1 cells treated with RSL3 or ML162, FIG. 13B, 14B): increased NFKB activity in THP1 cells in a dose dependent manner
viability of Caki-1 renal carcinoma cells, dose dependence ([7]; GPX4 inhibitor various doses, 24 hours, FIG. 13A, 14A): decreased viability of the cells in a dose dependent manner
viability of A20 lymphoma cells, dose dependence [4]: decreased viability of the cells in a dose dependent manner
NFKB activity in THP1 cells, dose dependence [5]: increased NFKB activity in THP1 cells in a dose dependent manner

CCOc1ccccc1-n1c(C(C)N2CCN(C(=O)COc3ccc(Cl)cc3)CC2)nc2ccccc2c1=O (centres unmarked) [Erastin]
increase in NFkB activity relative to the baseline [3]: 3.2 fold

CCOC(=O)c1ccc(NC2CCCCC2)c(N)c1 [Ferrostatin-1]
effect on GPX4 inhibitor-increased NFKB activity in THP1 cells ([6]; Caki-1 cells, 1 μM Ferrostatin with RSL3 or ML162): attenuated
effect on GPX4 inhibitor-decreased viability of Caki-1 renal carcinoma cells ([7]; 1 μM Ferrostatin with RSL3 or ML162, 24 hours): attenuated
effect on GPX4 inhibitor-decreased viability of A20 lymphoma cells ([4]; 1 μM Ferrostatin-1 with RSL3, ML162 or ML210, 24 hours): attenuated
effect on GPX4 inhibitor-increased NFKB activity in THP1 cells ([5]; A20 cells, 1 μM Ferrostatin-1 with RSL3, ML162 or ML210): attenuated

OO [Example H2O2, H2O2]
NFKB signaling in THP1 monocytes [1, 9]: did not have this same effect
viability of HT1080 cells [2, 10]: negatively affected the viability
